{"source": "patent US11396523B2", "about": "“Proton activated atomic medicine” (priority 2017, dated 2022)", "key": {"[1]": {"tested_on": "glioblastoma cell line U87-MG", "assay": "in vitro colony assay (survival fraction) after proton beam irradiation", "settings": "for cytotoxicity / cell kill compared to the proton beam treatment alone: 8 Gye single fraction protons plus compound, U87 cells exposed 96 hours before irradiation", "protocol": "FIG. 1 is a graphic representation of the dose of irradiation (x-axis) versus the log survival fraction (y-axis) of log phase U87 human glioblastoma cells. Three groups were used. […] This molecule is synthesized by replacing the 2 position of the aromatic ring of the nitrogenous base with oxygen-18. When these cells are treated with protons, there is a chemical transmutation at the atomic level where upon the oxygen-18 atom is changed into radioactive fluorine-18.\nPhysiologic serum concentrations in normal and cancer patients the physiologic serum concentration is ˜0.3-1.2 μM. The cells were irradiated with 2 and 8 Gye with 160 MeV protons single fraction and cell death/survival was determined using a colony assay and calculation of survival fraction."}, "[2]": {"settings": "large doses, human cancer patients; cited from earlier work"}}}
{"compound": "Cc1cn([C@H]2C[C@H](O)[C@@H](CO)O2)c(=O)[nH]c1=O", "note": "[Thymidine, reference compound]", "values": [{"measurement": "effect on cell survival", "setting": "[1]; same concentration X time exposure (0.5, 96 hours) plus 8 Gye protons", "value": "no effect"}, {"measurement": "concentrations in the serum achieved", "setting": "[2]", "value": "milli-molar range"}]}
{"compound": "C2-^18O-Thymidine [2-HTd]", "values": [{"measurement": "increased cell kill", "setting": "[1]; 0.5 microgram HTd exposed for 96 hours in vitro, 8 Gye single fraction protons, versus protons alone (FIG. 1)", "value": "about half a log"}, {"measurement": "cytotoxicity / cell kill compared to the proton beam treatment alone", "setting": "[1]", "value": "increased cytotoxicity"}, {"measurement": "cytotoxicity / cell kill compared to the proton beam treatment alone", "setting": "[1]; listed as heavy thymidine", "value": "greater cell kill"}, {"measurement": "radiation sensitization", "setting": "[1]; plus a single dose of 8 Gye of protons", "value": "proton specific radiation sensitization"}]}
